Biological target: T1, BpsCAβ (β-carbonic anhydrase) (Burkholderia pseudomallei, UniProt Q63Y17)
T1 construct: gene BPSL0372
Experiment: biochemical

T1 sequence (Q63Y17 1-256 limits assumed): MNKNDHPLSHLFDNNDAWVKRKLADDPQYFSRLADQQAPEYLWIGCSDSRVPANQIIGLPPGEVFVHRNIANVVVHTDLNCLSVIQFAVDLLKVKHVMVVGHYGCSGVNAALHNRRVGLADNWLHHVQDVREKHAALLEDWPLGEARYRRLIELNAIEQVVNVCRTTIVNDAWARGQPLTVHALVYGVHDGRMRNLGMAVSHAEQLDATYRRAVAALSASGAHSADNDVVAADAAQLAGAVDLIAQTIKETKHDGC

For CCN[C@H]1CN(CCCOC)S(=O)(=O)c2sc(S(N)(=O)=O)cc21 [BRZ, brinzolamide], the Ki was 4.27 µM.

In the case of Cc1ccc(-c2cc(C(F)(F)F)nn2-c2ccc(S(N)(=O)=O)cc2)cc1 [CLX, celecoxib], the Ki is reported as > 50 µM.

Work on NS(=O)(=O)c1cc(Cl)c(Cl)c(S(N)(=O)=O)c1 [DCP, dichlorophenamide] yielded a Ki of 0.529 µM.

Work on NS(=O)(=O)c1ccc(S(=O)(=O)Nc2cccc3c(Cl)c[nH]c23)cc1 [IND, indisulam] yielded a Ki of 4.37 µM.

CC(=O)N=c1sc(S(N)(=O)=O)nn1C [MZA, methazolamide] was tested, and the Ki was 0.186 µM.

CC1(C)O[C@@H]2[C@@H](CO[C@@]3(COS(N)(=O)=O)OC(C)(C)O[C@@H]23)O1 [TPM, topiramate] was tested, and the Ki was > 50 µM.

With NS(=O)(=O)Cc1noc2ccccc12 [ZNS, zonisamide] the Ki was 4.06 µM.

For Nc1cccc(S(N)(=O)=O)c1 [compound 1, metanilamide], the Ki was > 50 µM.

In the case of Nc1ccc(S(N)(=O)=O)cc1 [compound 2, sulfanilamide], the Ki is reported as 3.89 µM.

With NS(=O)(=O)c1cccc(S(N)(=O)=O)c1 [compound 3, 3] the Ki was 3.17 µM.

With Cc1ccc(S(N)(=O)=O)cc1 [compound 4, 4] the Ki was > 50 µM.

Work on NCc1ccc(S(N)(=O)=O)cc1 [compound 5, 5] yielded a Ki of 3.9 µM.

Nc1ccc(S(N)(=O)=O)cc1F [compound 7, 7] was tested, and the Ki was > 50 µM.

With Nc1ccc(S(N)(=O)=O)cc1Cl [compound 8, 8] the Ki was > 50 µM.

With Nc1ccc(S(N)(=O)=O)cc1Br [compound 9, 9] the Ki was > 50 µM.

In the case of NS(=O)(=O)c1cc(Cl)cc(Cl)c1O [compound 10, 10], the Ki is reported as 4.1 µM.

Nc1nnc(S(N)(=O)=O)s1 [compound 13, deacetylated derivative of AAZ] showed a Ki of 3.06 µM.

For Cn1nc(S(N)(=O)=O)sc1=N [compound 14, deacetylated derivative of MZA], the Ki was 2.5 µM.

In the case of Nc1ccc(S(=O)(=O)Nc2nnc(S(N)(=O)=O)s2)cc1 [compound 20, aminobenzolamide], the Ki is reported as 0.266 µM.

Reference: article PMC6155308 (Molecules : A Journal of Synthetic Chemistry and Natural …, 2017)
